Source: patent publication US20060258599A1, “Methods and composition for the treatment of cystic fibrosis and related illnesses” (priority 2005, published 2006)
Where two headings read alike, the source gives them in different places.

Experiments:
[1] = test system: individual who is a carrier of the CF gene; experiment: Fatty acid profile blood tests before and after 10-day oral isothiocyanate (individual study); format: in vivo, human
Protocol: Example 1. Individual study based on 10 mg consumption of BITC. An isothiocyanate of 10 mg was taken orally per day for 10 days by an individual who is a carrier of the CF gene. Blood tests were performed before and after the 10-day study to determine the fatty acid levels before and after administration of the isothiocyanate.

[2] = test system: glutathione S-transferase; conditions: cited from earlier work; for glutathione S-transferase activity: HT29 cells
[3] = +10 days vs baseline, 10 mg orally per day

Q: Which “Arachidic Acid, % Change” value [1, 3] does the source give for S=C=NCc1ccccc1 [BITC, benzyl isothiocyanate] here?
A: Its value is −8.93%.

Q: What about the “Arachidonic Acid, % Change” value [1, 3] of the same compound?
A: Its value is −3.31%.

Q: And the “DHA C22:6W3, % Change” value [1, 3]?
A: Its value is 36.29%.

Q: What about the “DPA C22 6W3, % Change” value [1, 3] of the same compound?
A: The value was −5.19%.

Q: What about the “DPA C22:6W6, % Change” value [1, 3] of the same compound?
A: The value was −8.7%.

Q: What about the “DTA C22 4W6T, % Change” value [1, 3] of the same compound?
A: Its value is 6.45%.

Q: And the “Docosanoic Acid C22:0, % Change” value [1, 3]?
A: Its value is 22.59%.

Q: And the “Docosanoic Acid C22:1, % Change” value [1, 3]?
A: The value was 0%.

Q: What about the “EPA, % Change” value [1, 3] of the same compound?
A: The value was 18.57%.

Q: And the “Hexacosanoic Acid C24:0, % Change” value [1, 3]?
A: Its value is 33.33%.

Q: What about the “Hexacosanoic Acid C28:1, % Change” value [1, 3] of the same compound?
A: Its value is 29.17%.

Q: What about the “Mead Acid, % Change” value [1, 3] of the same compound?
A: Its value is 0%.

Q: What about the “Nervonic Acid, % Change” value [1, 3] of the same compound?
A: Its value is −2.47%.

Q: What about the “Phytanic Acid, % Change” value [1, 3] of the same compound?
A: Its value is 18.8%.

Q: What about the “Priatanic Acid, % Change” value [1, 3] of the same compound?
A: Its value is 11.11%.

Q: What about the “Tetracosanoic Acid, % Change” value [1, 3] of the same compound?
A: The value was 24.6%.

Q: And the “Tiete Tebrana Ratio, % Change” value [1, 3]?
A: Its value is 0%.

Q: And the “Total Fatty Acids, % Change” value [1, 3]?
A: Its value is 1.87%.

Q: And the “Total Monounsaturated, % Change” value [1, 3]?
A: The value was 12%.

Q: And the “Total Polyunsaturated, % Change” value [1, 3]?
A: The value was 4.35%.

Q: And the “Total Saturated, % Change” value [1, 3]?
A: The value was 0%.

Q: And the “Total w3, % Change” value [1, 3]?
A: Its value is 20%.

Q: And the “Total w61, % Change” value [1, 3]?
A: Its value is 2.44%.

Q: And the “h-g-Linoleic Acid, % Change” value [1, 3]?
A: The value was −9.88%.

Q: And the “Tiete Tebrana Ratio, +10 days” value ([1]; blood test after 10 mg orally per day for 10 days, baseline 0.031)?
A: The value was 0.031.

Q: What about the “Priatanic Acid, +10 days” value ([1]; blood test after 10 mg orally per day for 10 days, baseline 0.09) of the same compound?
A: The value was 0.1.

Q: What about the “Hexacosanoic Acid C24:0, +10 days” value ([1]; blood test after 10 mg orally per day for 10 days, baseline 0.3) of the same compound?
A: The value was 0.4.

Q: What about the “Hexacosanoic Acid C28:1, +10 days” value ([1]; blood test after 10 mg orally per day for 10 days, baseline 0.48) of the same compound?
A: Its value is 0.62.

Q: And the “Total w3, +10 days” value ([1]; blood test after 10 mg orally per day for 10 days, baseline 0.5)?
A: The value was 0.6.

Q: And the “Phytanic Acid, +10 days” value ([1]; blood test after 10 mg orally per day for 10 days, baseline 1.33)?
A: The value was 1.58.

Q: What about the “Total Monounsaturated, +10 days” value ([1]; blood test after 10 mg orally per day for 10 days, baseline 2.5) of the same compound?
A: The value was 2.8.

Q: And the “Docosanoic Acid C22:1, +10 days” value ([1]; blood test after 10 mg orally per day for 10 days, baseline 3)?
A: The value was 3.

Q: What about the “Total Saturated, +10 days” value ([1]; blood test after 10 mg orally per day for 10 days, baseline 3.5) of the same compound?
A: Its value is 3.5.

Q: And the “Total w61, +10 days” value ([1]; blood test after 10 mg orally per day for 10 days, baseline 4.1)?
A: Its value is 4.2.

Q: What about the “Total Polyunsaturated, +10 days” value ([1]; blood test after 10 mg orally per day for 10 days, baseline 4.6) of the same compound?
A: Its value is 4.8.

Q: What about the “Total Fatty Acids, +10 days” value ([1]; blood test after 10 mg orally per day for 10 days, baseline 10.7) of the same compound?
A: The value was 10.9.

Q: What about the “DPA C22:6W6, +10 days” value ([1]; blood test after 10 mg orally per day for 10 days, baseline 23) of the same compound?
A: The value was 21.

Q: And the “Mead Acid, +10 days” value ([1]; blood test after 10 mg orally per day for 10 days, baseline 25)?
A: Its value is 25.

Q: What about the “DTA C22 4W6T, +10 days” value ([1]; blood test after 10 mg orally per day for 10 days, baseline 31) of the same compound?
A: The value was 33.

Q: And the “Tetracosanoic Acid, +10 days” value ([1]; blood test after 10 mg orally per day for 10 days, baseline 44.3)?
A: The value was 55.2.

Q: What about the “Arachidic Acid, +10 days” value ([1]; blood test after 10 mg orally per day for 10 days, baseline 56) of the same compound?
A: The value was 51.

Q: What about the “Docosanoic Acid C22:0, +10 days” value ([1]; blood test after 10 mg orally per day for 10 days, baseline 60.2) of the same compound?
A: Its value is 73.8.

Q: And the “EPA, +10 days” value ([1]; blood test after 10 mg orally per day for 10 days, baseline 70)?
A: The value was 83.

Q: And the “DPA C22 6W3, +10 days” value ([1]; blood test after 10 mg orally per day for 10 days, baseline 77)?
A: The value was 73.

Q: What about the “Nervonic Acid, +10 days” value ([1]; blood test after 10 mg orally per day for 10 days, baseline 81) of the same compound?
A: Its value is 79.

Q: And the “h-g-Linoleic Acid, +10 days” value ([1]; blood test after 10 mg orally per day for 10 days, baseline 243)?
A: Its value is 219.

Q: And the “DHA C22:6W3, +10 days” value ([1]; blood test after 10 mg orally per day for 10 days, baseline 248)?
A: The value was 338.

Q: What about the “Arachidonic Acid, +10 days” value ([1]; blood test after 10 mg orally per day for 10 days, baseline 847) of the same compound?
A: Its value is 819.

Q: And the “effect on glutathione S-transferase activity (in words)” value ([2]; HT29 cells cultures exposed to BITC)?
A: Its value is “statistically significant increase”.

Q: And the “glutathione S-transferase activity” value ([2]; 5 μmol/L of BITC)?
A: Its value is ~0.51 μmol min^−1 mg proteins^−1.

Q: And the “glutathione S-transferase activity” value ([2]; 25 μmol/L of BITC)?
A: The value was roughly 0.74 μmol min^−1 mg protein^−1.
